Test results: ChEMBL document CHEMBL1201862, “PubChem BioAssay data set” (2004)
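Growth conditions: 96-well plates. Treatment: test compound, 48 hours, 5 concentrations. Analysis: linear interpolation between bracketing concentrations; unreached endpoints set to highest concentration. The concentration for 50% growth inhibition is given as GI50.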 Active and inactive are the calls of the source. Rule as the data show it: active = GI50 up to about 1.1 µM and inactive = higher.

Experiments:
Test in all cases: NCI anticancer screen, dose series, 48 h
[1] = system: HCT-15
[2] = system: SNB-19
[3] = system: U-251
[4] = system: M14
[5] = system: NCI-H522
[6] = system: EKVX
[7] = system: A549
[8] = system: OVCAR-4
[9] = system: SK-MEL-5
[10] = system: RPMI-8226
[11] = system: HT-29
[12] = system: MOLT-4
[13] = system: LOX IMVI
[14] = system: SF-539
[15] = system: NCI-H460
[16] = system: UACC-257
[17] = system: SR

Compound | GI50 [1] [µM] | GI50 [2] | GI50 [3] | GI50 [4] | GI50 [5] | GI50 [6] | GI50 [7] | GI50 [8] | GI50 [9] | GI50 [10] | GI50 [11] | GI50 [12] | GI50 [13] | GI50 [14] | GI50 [15] | GI50 [16] | GI50 [17]
c1ccc(-c2csc3ncn4cnnc4c23)cc1 | 95.3 | > 100 µM (inactive) | > 100 µM (inactive) | > 100 µM (inactive) | 51.1 µM (inactive) | > 100 µM (inactive) | > 100 µM (inactive) | 75.5 µM (inactive) | 58.1 µM (inactive) | 59.6 µM (inactive) | > 100 µM (inactive) | 44.1 µM (inactive) | 55.8 µM (inactive) | > 100 µM (inactive) | – | – | –
CCCCCCCCCC(=O)CC(=O)c1c(O)cccc1O | – | 53.1 µM (inactive) | 24.9 µM (inactive) | 22 µM (inactive) | 27.8 µM (inactive) | 29.2 µM (inactive) | 28.8 µM (inactive) | 49.7 µM (inactive) | – | 25.6 µM (inactive) | 27.3 µM (inactive) | 31 µM (inactive) | 21.3 µM (inactive) | 45.4 µM (inactive) | 34.5 µM (inactive) | 38.2 µM (inactive) | –
COc1nc2c(nc(N)n2C2OC(CO)C(O)C(O)C2O)c(=O)n1C (centres undefined) | – | > 100 µM (inactive) | > 100 µM (inactive) | > 100 µM (inactive) | > 100 µM (inactive) | > 100 µM (inactive) | > 100 µM (inactive) | > 100 µM (inactive) | > 100 µM (inactive) | – | > 100 µM (inactive) | – | > 100 µM (inactive) | > 100 µM (inactive) | > 100 µM (inactive) | > 100 µM (inactive) | > 100 µM (inactive)
Oc1c(-c2ccccc2)nc2ccccn12 | – | > 100 µM (inactive) | > 100 µM (inactive) | > 100 µM (inactive) | > 100 µM (inactive) | > 100 µM (inactive) | > 100 µM (inactive) | > 100 µM (inactive) | > 100 µM (inactive) | – | > 100 µM (inactive) | > 100 µM (inactive) | – | > 100 µM (inactive) | > 100 µM (inactive) | > 100 µM (inactive) | > 100 µM (inactive)
O=C1O[C@@H](c2ccc3c(c2)OCO3)C2C(=O)O[C@@H](c3ccc4c(c3)OCO4)C12 (some centres undefined) | > 100 | > 100 µM (inactive) | > 100 µM (inactive) | > 100 µM (inactive) | > 100 µM (inactive) | > 100 µM (inactive) | > 100 µM (inactive) | > 100 µM (inactive) | > 100 µM (inactive) | > 100 µM (inactive) | > 100 µM (inactive) | > 100 µM (inactive) | > 100 µM (inactive) | > 100 µM (inactive) | > 100 µM (inactive) | > 100 µM (inactive) | –
Cc1cccc(NC(=O)CSc2nnc(-c3ccc(/N=C\c4ccc(Cl)cc4)cc3)o2)c1 | > 100 | > 100 µM (inactive) | > 100 µM (inactive) | > 100 µM (inactive) | 38.2 µM (inactive) | > 100 µM (inactive) | > 100 µM (inactive) | 69.2 µM (inactive) | > 100 µM (inactive) | > 100 µM (inactive) | > 100 µM (inactive) | > 100 µM (inactive) | 72.9 µM (inactive) | – | > 100 µM (inactive) | > 100 µM (inactive) | > 100 µM (inactive)
CC(C)C(=O)N1Cc2cc(Cl)cc(Cl)c2OC(=O)c2ccccc21 | 27.5 | 35.2 µM (inactive) | – | 25.8 µM (inactive) | 21 µM (inactive) | 27.7 µM (inactive) | 31 µM (inactive) | 28.8 µM (inactive) | 19.2 µM (inactive) | 25.5 µM (inactive) | 34 µM (inactive) | 22.6 µM (inactive) | 23.3 µM (inactive) | 18.7 µM (inactive) | 33 µM (inactive) | 17.2 µM (inactive) | –
Oc1ccc(Br)cc1/C=N/c1ccc(/N=C/c2cc(Br)ccc2O)cc1 | > 100 | > 100 µM (inactive) | > 100 µM (inactive) | > 100 µM (inactive) | – | > 100 µM (inactive) | > 100 µM (inactive) | > 100 µM (inactive) | > 100 µM (inactive) | > 100 µM (inactive) | > 100 µM (inactive) | > 100 µM (inactive) | > 100 µM (inactive) | > 100 µM (inactive) | > 100 µM (inactive) | > 100 µM (inactive) | > 100 µM (inactive)
CCOC(=O)[C@@]1(C)C=C2O[C@@H]3OC4(CCCCC4)O[C@@H]3C2=C2C(O)=CC=C(O)[C@]21C(=O)OC | > 68.1 | > 68.1 µM (inactive) | > 68.1 µM (inactive) | 20.7 µM (inactive) | > 68.1 µM (inactive) | > 68.1 µM (inactive) | > 68.1 µM (inactive) | > 68.1 µM (inactive) | > 68.1 µM (inactive) | 38.6 µM (inactive) | > 68.1 µM (inactive) | 33.7 µM (inactive) | > 68.1 µM (inactive) | – | > 68.1 µM (inactive) | > 68.1 µM (inactive) | –
COc1ccccc1C1C(Cl)C(=O)N1NC(=O)Cc1ccccc1 (centres undefined) | 73.6 | > 100 µM (inactive) | > 100 µM (inactive) | > 100 µM (inactive) | 48.3 µM (inactive) | > 100 µM (inactive) | > 100 µM (inactive) | 75.7 µM (inactive) | 61.9 µM (inactive) | 46.5 µM (inactive) | > 100 µM (inactive) | 27.7 µM (inactive) | 50.5 µM (inactive) | – | > 100 µM (inactive) | > 100 µM (inactive) | 26.2 µM (inactive)
CCOC(=O)NC(=O)c1cn(CCCCCCCCCCC(=O)NCCCN2CCN(CCCNC(=O)CCCCCCCCCCn3cc(C(=O)NC(=O)OCC)c(=O)[nH]c3=O)CC2)c(=O)[nH]c1=O | > 100 | > 100 µM (inactive) | > 100 µM (inactive) | > 10 µM (inactive) | > 10 µM (inactive) | – | > 100 µM (inactive) | – | – | – | > 100 µM (inactive) | > 100 µM (inactive) | > 100 µM (inactive) | > 100 µM (inactive) | > 100 µM (inactive) | > 100 µM (inactive) | > 100 µM (inactive)
Nc1nc(-c2ccc(Cl)c([N+](=O)[O-])c2)cs1 | > 100 | 68.2 µM (inactive) | 40.6 µM (inactive) | > 100 µM (inactive) | – | 94.8 µM (inactive) | > 100 µM (inactive) | > 100 µM (inactive) | > 100 µM (inactive) | > 100 µM (inactive) | > 100 µM (inactive) | 97.3 µM (inactive) | > 100 µM (inactive) | 28.7 µM (inactive) | > 100 µM (inactive) | > 100 µM (inactive) | –
CCOC(=O)C(C)c1cc(C2(C)OCCO2)c(C)o1 (centres undefined) | > 100 | > 100 µM (inactive) | > 100 µM (inactive) | > 100 µM (inactive) | – | > 100 µM (inactive) | > 100 µM (inactive) | > 100 µM (inactive) | > 100 µM (inactive) | > 100 µM (inactive) | – | > 100 µM (inactive) | > 100 µM (inactive) | > 100 µM (inactive) | > 100 µM (inactive) | – | –
C/C(=N\NC(N)=S)c1ccc(/C(C)=N/NC(N)=S)cc1 | > 100 | > 100 µM (inactive) | > 100 µM (inactive) | > 100 µM (inactive) | > 100 µM (inactive) | > 100 µM (inactive) | > 100 µM (inactive) | – | > 100 µM (inactive) | > 100 µM (inactive) | > 100 µM (inactive) | > 100 µM (inactive) | > 100 µM (inactive) | > 100 µM (inactive) | > 100 µM (inactive) | > 100 µM (inactive) | > 100 µM (inactive)
COC(=O)C(CCC1(C)OCCO1)=[N+]=[N-] | > 100 | > 100 µM (inactive) | > 100 µM (inactive) | > 100 µM (inactive) | > 100 µM (inactive) | > 100 µM (inactive) | > 100 µM (inactive) | > 100 µM (inactive) | > 100 µM (inactive) | – | > 100 µM (inactive) | > 100 µM (inactive) | > 100 µM (inactive) | > 100 µM (inactive) | > 100 µM (inactive) | > 100 µM (inactive) | > 100 µM (inactive)
CCOC(=O)N(c1ccccc1)N(CC)C(=O)/C(C)=N/Nc1ccc([N+](=O)[O-])cc1 | 16 | 16.2 µM (inactive) | 15 µM (inactive) | 17.9 µM (inactive) | 15.3 µM (inactive) | 18.6 µM (inactive) | 16.7 µM (inactive) | 19.7 µM (inactive) | – | 16.8 µM (inactive) | 17.1 µM (inactive) | 17.7 µM (inactive) | – | 16.1 µM (inactive) | – | 15 µM (inactive) | 21.7 µM (inactive)
c1cc(C2O[C@H]3CCCN3[C@@H]2c2ccncc2)ccn1 (some centres undefined) | > 100 | > 100 µM (inactive) | > 100 µM (inactive) | > 100 µM (inactive) | > 100 µM (inactive) | > 100 µM (inactive) | > 100 µM (inactive) | > 100 µM (inactive) | > 100 µM (inactive) | > 100 µM (inactive) | > 100 µM (inactive) | > 100 µM (inactive) | > 100 µM (inactive) | > 100 µM (inactive) | > 100 µM (inactive) | > 100 µM (inactive) | –
COc1ccc(C(O)c2cc(OC)c(OC)c(OC)c2)cc1 (centres undefined) | 8.77 | 42.4 µM (inactive) | 34 µM (inactive) | 13 µM (inactive) | 11.6 µM (inactive) | 43.9 µM (inactive) | 17.1 µM (inactive) | 31.8 µM (inactive) | 17 µM (inactive) | 19.9 µM (inactive) | 7.16 µM (inactive) | 16.9 µM (inactive) | 17.2 µM (inactive) | 21.3 µM (inactive) | 31.6 µM (inactive) | 38.2 µM (inactive) | –
